Type in all cases: biochemical
The target of one assay is T1, recombinant human HDAC1 (Homo sapiens, UniProt Q13547).
T1 construct: purchased BPS Biosciences
The experiment in a line: 384-well fluorometric deacetylase assay (substrate MAZ1600), HDAC1. Also on record: % HDAC1 Activ: unit not given here. Particulars: for Classification: class assigned from the HDAC1, 2, 3, 5 panel; for HDAC1 slope: rate of reaction (slope), DMSO control 37787; for % HDAC1 Activ: slope normalized to mean of DMSO control (DMSO = 1.00). An excerpt:
(§1) TCEP was omitted from the assay buffer. Rates of reactions (slopes) were normalized to the mean of DMSO control treatments for each enzyme on each plate. Bradner J E, West N, Grachan M L, Greenberg E F, Haggarty S J, Mazitsheck. Nature Chemical Biology (under review). Bradner J E, West N, Grachan M L, Greenberg E F, Haggarty S J, Mazitsheck. Chemical Phylogenetics of Histone Deacetylases. […] Z

A further assay has as its target T2, recombinant human HDAC2 (Homo sapiens, UniProt Q92769).
T2 construct: purchased BPS Biosciences
The experiment in a line: 384-well fluorometric deacetylase assay (substrate MAZ1600), HDAC2. Particulars: for HDAC2 slope: rate of reaction (slope), DMSO control 40839; for % HDAC2 Activ: slope normalized to mean of DMSO control (DMSO = 1.00).
Text: as §1

Another assay has as its target T3, recombinant human HDAC3 (Homo sapiens, UniProt O15379).
T3 construct: purchased BPS Biosciences
The assay is described as follows: 384-well fluorometric deacetylase assay (substrate MAZ1600), HDAC3. Particulars: for HDAC3 slope: rate of reaction (slope), DMSO control 54625; for % HDAC3 Activ: slope normalized to mean of DMSO control (DMSO = 1.00).
Text: as §1

The target of another assay is T4, recombinant human HDAC5 (Homo sapiens, UniProt Q9UQL6).
T4 construct: purchased BPS Biosciences
The experiment in a line: 384-well fluorometric deacetylase assay (substrate MAZ1675), HDAC5. Particulars: for HDAC5 slope: rate of reaction (slope), DMSO control 50401; for % HDAC5 activ: slope normalized to mean of DMSO control (DMSO = 1.00).
Text: as §1

We go through 14 molecules from US20100075926A1, “ACTIVATION OF HISTONE DEACETYLASE 1 (HDAC1) PROTECTS AGAINST DNA DAMAGE AND INCREASES NEURONAL SURVIVAL” (priority 2008, published 2010).

T3 sequence (O15379 whole entry): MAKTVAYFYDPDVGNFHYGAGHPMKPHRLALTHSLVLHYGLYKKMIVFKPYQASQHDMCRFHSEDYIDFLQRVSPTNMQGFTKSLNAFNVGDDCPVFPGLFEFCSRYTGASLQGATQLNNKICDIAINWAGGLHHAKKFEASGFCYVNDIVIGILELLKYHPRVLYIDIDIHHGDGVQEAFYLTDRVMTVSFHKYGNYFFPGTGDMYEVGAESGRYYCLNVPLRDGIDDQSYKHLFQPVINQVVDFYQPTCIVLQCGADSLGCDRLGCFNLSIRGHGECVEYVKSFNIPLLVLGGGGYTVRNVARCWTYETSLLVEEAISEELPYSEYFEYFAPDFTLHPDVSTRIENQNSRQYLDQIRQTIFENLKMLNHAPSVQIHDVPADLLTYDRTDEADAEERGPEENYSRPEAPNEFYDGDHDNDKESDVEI
T3 sequence (Q9Y618 395-489 partner limits assumed): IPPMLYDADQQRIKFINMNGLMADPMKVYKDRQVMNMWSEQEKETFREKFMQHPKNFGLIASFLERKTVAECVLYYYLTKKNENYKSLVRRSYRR
T1 sequence (Q13547 whole entry): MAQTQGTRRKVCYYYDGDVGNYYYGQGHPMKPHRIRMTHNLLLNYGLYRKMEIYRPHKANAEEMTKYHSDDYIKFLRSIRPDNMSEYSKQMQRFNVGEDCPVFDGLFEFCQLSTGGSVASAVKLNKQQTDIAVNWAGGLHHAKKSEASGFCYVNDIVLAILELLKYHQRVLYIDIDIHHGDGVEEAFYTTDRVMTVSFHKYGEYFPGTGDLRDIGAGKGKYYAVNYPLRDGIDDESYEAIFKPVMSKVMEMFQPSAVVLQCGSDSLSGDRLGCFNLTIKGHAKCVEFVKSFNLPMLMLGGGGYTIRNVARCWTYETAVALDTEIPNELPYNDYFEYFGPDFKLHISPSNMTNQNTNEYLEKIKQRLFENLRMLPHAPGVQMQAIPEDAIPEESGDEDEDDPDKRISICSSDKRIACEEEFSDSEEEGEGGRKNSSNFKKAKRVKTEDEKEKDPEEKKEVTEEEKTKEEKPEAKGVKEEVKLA
T4 sequence (Q9UQL6 whole entry): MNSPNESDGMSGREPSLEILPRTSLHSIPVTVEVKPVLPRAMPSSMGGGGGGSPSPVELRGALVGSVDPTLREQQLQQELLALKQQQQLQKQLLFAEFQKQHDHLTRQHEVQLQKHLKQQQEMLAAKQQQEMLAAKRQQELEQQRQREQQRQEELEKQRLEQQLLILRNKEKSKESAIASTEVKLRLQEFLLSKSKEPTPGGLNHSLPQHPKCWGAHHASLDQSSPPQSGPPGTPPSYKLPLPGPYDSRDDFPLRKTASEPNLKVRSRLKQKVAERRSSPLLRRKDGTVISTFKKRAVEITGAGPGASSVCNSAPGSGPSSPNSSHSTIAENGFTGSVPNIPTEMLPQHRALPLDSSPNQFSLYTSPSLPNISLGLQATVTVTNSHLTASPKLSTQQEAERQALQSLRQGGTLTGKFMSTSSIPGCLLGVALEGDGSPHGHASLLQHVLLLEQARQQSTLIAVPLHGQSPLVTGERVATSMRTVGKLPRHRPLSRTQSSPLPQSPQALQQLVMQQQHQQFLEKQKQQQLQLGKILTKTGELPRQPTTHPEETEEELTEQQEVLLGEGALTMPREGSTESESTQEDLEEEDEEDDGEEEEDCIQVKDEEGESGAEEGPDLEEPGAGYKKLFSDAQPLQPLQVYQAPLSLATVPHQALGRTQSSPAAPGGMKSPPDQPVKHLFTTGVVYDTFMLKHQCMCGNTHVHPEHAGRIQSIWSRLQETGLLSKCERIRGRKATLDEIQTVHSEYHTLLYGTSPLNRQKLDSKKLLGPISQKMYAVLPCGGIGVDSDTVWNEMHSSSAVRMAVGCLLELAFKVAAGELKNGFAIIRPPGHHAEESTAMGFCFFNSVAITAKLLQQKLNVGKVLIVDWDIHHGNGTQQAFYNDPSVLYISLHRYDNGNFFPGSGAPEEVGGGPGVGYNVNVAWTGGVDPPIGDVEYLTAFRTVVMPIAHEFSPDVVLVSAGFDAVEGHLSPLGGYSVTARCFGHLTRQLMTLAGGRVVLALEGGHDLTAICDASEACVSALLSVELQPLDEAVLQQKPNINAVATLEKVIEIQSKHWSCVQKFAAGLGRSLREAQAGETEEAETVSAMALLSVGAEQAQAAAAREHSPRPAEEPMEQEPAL
T2 sequence (Q92769 whole entry): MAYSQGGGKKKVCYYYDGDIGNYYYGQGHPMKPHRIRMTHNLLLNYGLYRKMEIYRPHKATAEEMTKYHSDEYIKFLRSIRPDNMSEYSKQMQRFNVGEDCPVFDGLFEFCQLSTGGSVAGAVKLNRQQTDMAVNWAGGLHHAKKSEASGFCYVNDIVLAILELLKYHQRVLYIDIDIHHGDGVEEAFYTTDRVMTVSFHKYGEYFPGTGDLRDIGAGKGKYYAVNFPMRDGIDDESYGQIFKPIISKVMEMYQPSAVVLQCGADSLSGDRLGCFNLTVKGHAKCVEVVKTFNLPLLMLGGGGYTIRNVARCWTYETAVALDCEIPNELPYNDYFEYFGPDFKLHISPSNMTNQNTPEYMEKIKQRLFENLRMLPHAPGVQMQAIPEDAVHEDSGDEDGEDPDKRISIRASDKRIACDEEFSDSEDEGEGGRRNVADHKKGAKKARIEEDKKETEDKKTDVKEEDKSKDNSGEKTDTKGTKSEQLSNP

As to `NC(C(=O)O)c1nnn[nH]1` (racemic), on recombinant human HDAC1, the Classification entry is given as “HDAC1 activator” and the HDAC1 slope stood at 40343. The HDAC2 slope at recombinant human HDAC2 is on record as 42215. Also, at recombinant human HDAC3, the HDAC3 slope worked out at 56930. Also, on recombinant human HDAC5, the HDAC5 slope is reported as 45589.

`CC1(C)S[C@@H]2[C@H](NC(=O)[C@H](N)c3ccccc3)C(=O)N2[C@H]1C(=O)O` [Ampicillin trihydrate]: at recombinant human HDAC1, the Classification result is reported as “HDAC1 & HDAC3 activator” and the HDAC1 slope came out at 40160. Besides, at recombinant human HDAC2, the HDAC2 slope came out at 43966. The HDAC3 slope on recombinant human HDAC3 is recorded as 56660. In addition, the HDAC5 slope at recombinant human HDAC5 is 46606.

`O=C(O)[C@H]1C[C@@H](CP(=O)(O)O)CCN1` [CGS 19755]: at recombinant human HDAC1, the Classification result is on record as “HDAC1 activator” and the HDAC1 slope is recorded as 41839. Further, the HDAC2 slope on recombinant human HDAC2 turned out to be 42301. At recombinant human HDAC3, the HDAC3 slope was 57057. For the same molecule, at recombinant human HDAC5, the HDAC5 slope stood at 48280.

As to `COc1cc([C@@H]2c3cc4c(cc3[C@H](O)[C@H]3COC(=O)[C@H]23)OCO4)cc(OC)c1OC` [Podophyllo toxin, podophyllotoxin], on recombinant human HDAC1, the Classification result is on record as “HDAC1 activator” and the HDAC1 slope turned out to be 40983. Besides, on recombinant human HDAC2, the HDAC2 slope turned out to be 39197. For the same molecule, the HDAC3 slope at recombinant human HDAC3 was 53416. Moreover, the HDAC5 slope on recombinant human HDAC5 is 54734.

In the case of `CC(O)(P(=O)([O-])O)P(=O)([O-])O.[Na+].[Na+]` [Etidronic acid, disodium salt], at recombinant human HDAC1, the Classification result was “HDAC1 & HDAC3 activator” and the HDAC1 slope is reported as 40241. Further, at recombinant human HDAC2, the HDAC2 slope is listed as 41315. Also, at recombinant human HDAC3, the HDAC3 slope worked out at 58286. Besides, the HDAC5 slope at recombinant human HDAC5 is 51711.

As to `NCC(CC(=O)O)c1ccc(Cl)s1` (racemic) [(+-)-4-amino-3-(5-chloro-2-thienyl)-butanoic acid], at recombinant human HDAC1, the Classification result is given as “HDAC1 activator”, the HDAC1 slope is 40239 and the “% HDAC1 Activ” value is listed as 1.06. Also, on recombinant human HDAC2, the HDAC2 slope was 40008 and the “% HDAC2 Activ” value is 0.98 fraction of DMSO control. Moreover, on recombinant human HDAC3, the HDAC3 slope is on record as 54049 and the “% HDAC3 Activ” value is listed as 0.99 fraction of DMSO control. Also, at recombinant human HDAC5, the HDAC5 slope worked out at 50272 and the “% HDAC5 activ” value is given as 100%.

With `Oc1cc2c(c(Cl)c1O)CCNC[C@@H]2c1ccccc1` [R(+)-SKF- 81297], at recombinant human HDAC1, the Classification entry was “HDAC1 & HDAC3 activator” and the HDAC1 slope came out at 40201. At recombinant human HDAC2, the HDAC2 slope is 42197. The HDAC3 slope at recombinant human HDAC3 worked out at 66733. Also, the HDAC5 slope on recombinant human HDAC5 stood at 48294.

`C[C@](N)(Cc1ccc(O)c(O)c1)C(=O)O` [Methyldopa (L,-)]: at recombinant human HDAC1, the Classification entry was “HDAC1 & HDAC3 activator” and the HDAC1 slope was 40553. Besides, the HDAC2 slope on recombinant human HDAC2 worked out at 42153. On recombinant human HDAC3, the HDAC3 slope was determined as 60891. On recombinant human HDAC5, the HDAC5 slope stood at 56516.

On to `CCN(CC)CCc1nc(-c2ccccc2)no1.O=C(O)CC(O)(CC(=O)O)C(=O)O` [Oxalamine citrate salt], for which, on recombinant human HDAC1, the Classification entry is given as “HDAC1 & HDAC3 activator” and the HDAC1 slope is 40700. Besides, the HDAC2 slope at recombinant human HDAC2 is 41269. The HDAC3 slope at recombinant human HDAC3 turned out to be 60752. In addition, at recombinant human HDAC5, the HDAC5 slope is reported as 47216.

`N[C@H](CC(=O)O)C(=O)O` [D- ASPARTIC ACID, D-aspartic acid]: at recombinant human HDAC1, the Classification entry is reported as “HDAC1 activator” and the HDAC1 slope is reported as 40655. For the same molecule, the HDAC2 slope on recombinant human HDAC2 stood at 42016. The HDAC3 slope on recombinant human HDAC3 stood at 54899. Besides, the HDAC5 slope at recombinant human HDAC5 is recorded as 45291.

In the case of “phenazopyridine hydrochloride [Phenazo- pyridine hydrochloride]”, on recombinant human HDAC1, the Classification result is given as “HDAC1 activator”, the HDAC1 slope worked out at 40631 and the “% HDAC1 Activ” value was 1.08. Moreover, at recombinant human HDAC2, the HDAC2 slope stood at 42470 and the “% HDAC2 Activ” value is on record as 1.04 fraction of DMSO control. For the same molecule, on recombinant human HDAC3, the HDAC3 slope was 56613 and the “% HDAC3 Activ” value is recorded as 1.04 fraction of DMSO control. On recombinant human HDAC5, the HDAC5 slope was determined as 54125 and the “% HDAC5 activ” value is 107%.

In the case of `CP(=O)(O)CCCN` [SK&F 97541], at recombinant human HDAC1, the Classification entry is “HDAC1 activator” and the HDAC1 slope was found to be 40213. The HDAC2 slope at recombinant human HDAC2 is 39881. Also, the HDAC3 slope at recombinant human HDAC3 came out at 54915. Moreover, the HDAC5 slope on recombinant human HDAC5 came out at 49250.

Turning to `O=C(O)[C@@H]1C[C@H]2C[C@@H](CP(=O)(O)O)CC[C@H]2CN1` [LY 235959], on recombinant human HDAC1, the Classification entry is listed as “HDAC1 & HDAC3 activator” and the HDAC1 slope is on record as 40893. Besides, the HDAC2 slope at recombinant human HDAC2 stood at 42923. Further, the HDAC3 slope on recombinant human HDAC3 was 65435. For the same molecule, the HDAC5 slope on recombinant human HDAC5 was found to be 43688.

Turning to `C[C@H](N)[C@H](O)c1ccc(O)c(O)c1` [Levonordefrin], on recombinant human HDAC1, the Classification entry is “HDAC1 & HDAC3 activator” and the HDAC1 slope was determined as 40405. Moreover, the HDAC2 slope at recombinant human HDAC2 is 40182. The HDAC3 slope on recombinant human HDAC3 was determined as 62457. Further, the HDAC5 slope on recombinant human HDAC5 is reported as 47752.
